ChEMBL document CHEMBL5126510, “UCH-L3 structure and function: Insights about a promising drug target” (Eur J Med Chem, 2022)

What was measured:
[1] = target: T1, Ubiquitin carboxyl-terminal hydrolase isozyme L1 (Homo sapiens, UniProt P09936); assay: Inhibition of UCHL1 (unknown origin) using Ub-Rho as substrate preincubated for 30 mins followed by substrate addition
T1 sequence (P09936 whole entry): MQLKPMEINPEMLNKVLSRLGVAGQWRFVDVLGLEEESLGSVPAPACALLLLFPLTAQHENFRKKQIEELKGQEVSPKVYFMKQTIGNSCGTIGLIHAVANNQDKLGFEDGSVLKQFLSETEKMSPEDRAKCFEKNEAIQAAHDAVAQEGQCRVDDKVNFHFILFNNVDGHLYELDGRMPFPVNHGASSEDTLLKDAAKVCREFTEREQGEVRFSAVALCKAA

[2] = target: T1, Ubiquitin carboxyl-terminal hydrolase isozyme L1; assay: Inhibition of UCHL1 (unknown origin) using Ub-Rho-morpholine as substrate preincubated for 30 mins followed by substrate addition by fluorescence based assay
[3] = target: T2, Ubiquitin carboxyl-terminal hydrolase isozyme L3 (Homo sapiens, UniProt P15374); assay: Inhibition of UCHL3 (unknown origin) assessed as reduction in RAD51 deubiquitination incubated for 4 hrs
T2 sequence (P15374 whole entry): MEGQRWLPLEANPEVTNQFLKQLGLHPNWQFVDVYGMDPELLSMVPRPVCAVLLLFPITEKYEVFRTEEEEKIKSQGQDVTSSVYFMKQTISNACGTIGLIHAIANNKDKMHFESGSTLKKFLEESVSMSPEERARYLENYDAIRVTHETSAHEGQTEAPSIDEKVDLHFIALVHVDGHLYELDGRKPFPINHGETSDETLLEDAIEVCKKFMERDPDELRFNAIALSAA

[4] = target: T2, Ubiquitin carboxyl-terminal hydrolase isozyme L3; assay: Inhibition of UCHL3 (unknown origin)
[5] = target: T2, Ubiquitin carboxyl-terminal hydrolase isozyme L3; assay: Inhibition of UCHL3 (unknown origin) incubated for 20 mins by fluorescence assay
[6] = target: T2, Ubiquitin carboxyl-terminal hydrolase isozyme L3; assay: Inhibition of UCHL3 (unknown origin) using Ub-AMC as substrate preincubated for 30 mins followed by substrate addition by fluorescence assay
[7] = target: T3, Ubiquitin carboxyl-terminal hydrolase isozyme L3 (Homo sapiens) (UniProt P15374); assay: Inhibition of UCHL3 (unknown origin) using Ub-AMC as substrate at 0.1 uM preincubated for 60 mins followed by substrate addition by fluorescence assay relative to control
T3 sequence (whole entry): T2 sequence (P15374 whole entry)

[8] = target: T2, Ubiquitin carboxyl-terminal hydrolase isozyme L3; assay: Inhibition of UCHL3 (unknown origin) using ubiquitin-AMC as substrate by fluorescence assay
[9] = target: T2, Ubiquitin carboxyl-terminal hydrolase isozyme L3; assay: Inhibition of recombinant human UCHL3 expressed in baculovirus infected Sf9 cells using ubiquitin-AMC as substrate preincubated for 30 mins followed by substrate addition by fluorescence spectrophotometric assay

## C#CCCn1cc(-c2cccc3c2ccn3C(=O)C2CCCN2C#N)c(C(F)(F)F)n1 (stereo not given)
[1]
  IC50: 6.4 µM

## N#CN1CCC(C(=O)Nc2ncc(N3CCOCC3)s2)C1 (stereo not given)
[2]
  IC50: 0.23 µM

## CCCCCCCCCCCCCCCCCCOP(=O)([O-])OC1CC[N+](C)(C)CC1 [PERIFOSINE]
[3]
  IC50: 0.05 µM

## CC(=O)O/N=C1/C(=O)N(Cc2cc(Cl)ccc2Cl)c2ccc(Cl)cc21
[4]
  IC50: 25 µM

## N#CN1CCCC1C(=O)n1ccc2c(-c3cn[nH]c3C(F)(F)F)cccc21 (stereo not given)
[1]
  IC50: 0.67 µM

## COC(=O)c1cc(-c2ccc(OC)c(OC)c2O)c(N)c(-c2ccc3c(n2)C(=O)C(N)=C(OC)C3=O)n1
[5]
  IC50: 5 µM

## CCCCC[C@H](O)/C=C/[C@H]1C(=O)C=C[C@@H]1C/C=C\CCCC(=O)O
[6]
  IC50: 10 µM

## O=C1C(Cc2ccc([N+](=O)[O-])cc2)CNCC1Cc1ccc([N+](=O)[O-])cc1 (stereo not given)
[7]
  inhibition: 60%

## O=C1c2ccccc2C(=O)c2oc(-c3ccc(F)cc3)nc21
[8]
  IC50: 2.16 µM

## CCCCc1ccc(-c2nnc(C)n2-c2ccc(C(C)C)cc2)cc1
[9]
  IC50: 47 µM
